Experiments:
[1] = system: TNFr; test: TNF-R transfectant, NF-kB reporter gene (secreted phosphatase); type: cell-based
Excerpt: (§1) The secreted phosphatase sPase was used as reporter for its ability to process the luminiscent or colorimetric substrates from the culture based in the hydrolysis of substrates chemically similar to nitrophenol phosphate. Five generation of transfectants were developed as described: • 1. IL-4R. Chains of Type II IL-4-r, which is the common one within non-haematopoietic cells were transfected, as well as STAT6 which the key molecule in the nuclear signalling route by IL-4-r, and finally a reporter gene to measure the response to STAT6 was introduced. Endogenously, cells had Janus Associated Kinase 1 (JAK1) which was previously known to be associated with STAT6 via p62/aPKC. • 2. IL-6R. Chains of IL-6R were transfected and a reporter gene able to measure the response to STAT3 was introduced. As it is well known, STAT3 is a transductional molecule and a nuclear factor physiologically produced in the standard responses IL-6/IL-6R. • 3. TNF-R. In this case, a reporter gene able to measure the response to NF-kB was introduced, as this is the transductional molecule and the nuclear factor physiologically produced in response to TNF-alpha. […] LPS-Receptor complex represented by TLR4/MD2/CD14. Reporter genes with elements of response to NFkB were used as in the previous case, but the selectivity was achieved by the co-transfection of components of the LPS-R complex. The LPS is captured from the serum through the union to one plasma protein known as LBP, which transfers the LPS to the membrane protein CD14. The LBP inclusion accounts for an increase of 1000-fold the sensitivity versus media or cultures LBP-frees. The molecule CD14 is not an LPS-receptor but a module of the receptor complex which captures LBP, allowing the transference of LPS in the cellular surface to MD2. CD14 has not a cytoplasmic tail and it is not able to be a signal transducer but it substantially increases the sensitivity of the system. In a similar way, MD2 is not a signal transducer but the combination of CD14 and MD2 allows the increase of the sensitivity by 10000-fold. • 5. IL-1R. Reporter genes with elements of response to NFkB were used as in the previous case, but the selectivity was achieved by the expression of components belonging to the receptor complex IL-1R. IL-1R belongs to a receptors superfamily which uses TIR transduction domains (Toll-like IL-1R). It is known that the IL-1R route activates mitogen-activated protein kinases (MAPK) of JNK type which in turn generate nuclear factors transcriptionally active as AP-1. The reporter gene includes NFkB and AP-1 sites chained in order to simulate the physiological situation.

[2] = system: IL6r; test: IL-6R transfectant, STAT3 reporter gene (secreted phosphatase); type: cell-based
Excerpt: as §1

[3] = system: IL4r; test: IL-4R transfectant, STAT6 reporter gene (secreted phosphatase); type: cell-based
Excerpt: as §1

[4] = system: TNF-α; test: Murine endotoxemia (LPS i.p.), blood serum TNF-α; type: in vivo, mice; conditions: orally 100 mg/kg; 90 min after LPS 1 mg/kg i.p.
Method: MATERIAL AND METHODS: Male CD1 mice, weighing between 30 and 35 g and housed under controlled standard conditions, were used. These animal fasted (for 14-16 hours; 12 per group; 6 per cage≅500 cm^2), with a nutritional solution made of Saccharose (8%) and NaCl (0.2%), ad libitum. Oral test treatments were given in suspensions (vehicle: Tween 80 0.1%—NaCl 0.9%), in a 10 ml/kg volume ratio. One hour later, murine endotoxemia was induced by intraperitoneal injection of Lipopolysaccharides from Escherichia coli serotype 055:B5 (Sigma L-2880), at 1 mg/kg dose and in a 10 ml/kg volume ratio, dissolved in sterile saline. Ninety minutes after LPS injection (i.p.), under Isoflurane anaesthesia, 0.5-0.8 ml of blood was extracted by cardiac punction; the blood sample was centrifuged (6000 rpm; 10 minutes; 4° C.) and 2 serum samples were taken and kept frozen at −70° C. until serum TNF-α concentrations were measured (EIA: Mouse TNF/TNF SF1A Quantikine from R&D Systems).

[5] = system: B16-F1; test: In vitro cytotoxicity, SRB method; type: cell-based; conditions: Mus musculus, B16-F1 melanoma, 72 hours
Method: (§2) SRB method was followed (Wieland, V., et al. Sulforhodamine B Assay and Chemosensitivity. Chemosensitivity, volume 1, In Vitro Assays. Methods in Molecular Medicine. Edited by Rosalyn D. Blumenthal. Humana Press, Totowa, N.J., 2005).
(§3) Cells were seeded in microplates of 96 wells. In each well, according to the cell type, specific number of cells were seeded in 200 microliters. In these conditions, cells were cultured for 3 days, with the aim of reaching their exponential phase of growing to assay the product cytotoxicity. The product concentrations were prepared just the day of treatments, after thawing the stock solutions (10 mM). After harvesting the microplate with the seeded cells for 3 days, the culture medium was discarded and replaced by 150 μl of fresh medium in each well. This was followed by the addition of 50 μl of the corresponding product dilution so as the final concentration in the final volume of 200 microliters in each well was the one scheduled. The products, at the assayed concentrations, were in contact with the cell growing monolayer for 72 hours and incubated at 37° C., 5% CO2. Finally, cells were growth arrested adding […] of cold TCA (Trichloroacetic acid) 50%, (final concentration of 10% in the well). Microplate was then maintained at 4° C. for over 60 min to fix cellular proteins till initiation of washing and staining with SRB.
(§4) Cell viability (%)=(Cell population of the treated well/Maximum cell population of the Standard curve)×100.
(§5) Mean viability values for each concentration were calculated from the values obtained for each well in which that concentration was assayed.

[6] = system: HCT116; test: In vitro cytotoxicity, SRB method; type: cell-based; conditions: Homo sapiens, HCT-116, HCT116 colon cancer, 72 hours
Method: as §2, §3, §4, §5

[7] = system: HepG2; test: In vitro cytotoxicity, SRB method; type: cell-based; conditions: Homo sapiens, HepG2 hepatoma, 72 hours
Method: as §2, §3, §4, §5

[8] = system: Malm-3M; test: In vitro cytotoxicity, SRB method; type: cell-based; conditions: Malm-3M melanoma, 72 hours
Method: as §2, §3, §4, §5

[9] = system: NCI-H460; test: In vitro cytotoxicity, SRB method; type: cell-based; conditions: Homo sapiens, NCI-H460 lung, 72 hours
Method: as §2, §3, §4, §5

[10] = system: SF268; test: In vitro cytotoxicity, SRB method; type: cell-based; conditions: Homo sapiens, SF-268, SF268 glioblastoma, 72 hours
Method: as §2, §3, §4, §5

[11] = system: SW260; test: In vitro cytotoxicity, SRB method; type: cell-based; conditions: SW260 colon cancer, 72 hours
Method: as §2, §3, §4, §5

[12] = system: colorectal cancer cells from patients with Kras mutation; test: Mutated Kras colon cancer orthotopic animal model; type: in vivo, mice; conditions: compared with vehicle control, FIG. 4A
Method: Using an animal model based on colorectal cancer cells from patients with Kras mutation, implanted on mice in the colon area (Yao, M. Cyclooxygenase-2 selective inhibition with NS-398 suppresses proliferation and invasiveness and delays liver metastasis in colorectal cancer. Br. J. Cancer, 2004 Feb. 9; 90(3):712-9), the effects of Compound 3 were tested.

[13] = system: IL6; test: Blood serum IL6 in mice treated with parathyroid hormone; type: in vivo; conditions: orally 25 mg/kg; pTH-rp treated mice
Method: MATERIAL AND METHODS: Male CD1 mice, between 5 and 7 week and housed under controlled standard conditions, were used. These animal fasted (for 14-16 hours; 12 per group; 6 per cage≅1100 cm^2), with solid and liquid food ad libitum. During 5 days, the animals were treated with 8 i.p. administration of pTH-rp (1-34, human) 15 microgram/0.1 ml/injection
Oral test treatments were given in suspensions (vehicle: Tween 80 0.1%—NaCl 0.9%), in a 10 ml/kg volume ratio., one hour later of pTH injection.
Two hours after last pTH administration and under Isoflurane anaesthesia, 0.5-0.8 ml of blood was extracted by cardiac punction; the blood sample was centrifuged (6000 rpm; 10 minutes; 4° C.) and 2 serum samples were taken and kept frozen at −70° C. until serum IL6 concentrations were measured (EIA: reference number 555240. BD Bioscience).

[14] = Cytotoxicity for human non-tumoral cells, XTT; type: cell-based; conditions: HUVEC cells (primary, from human cords)
Method: (§6) The cytotoxicity of the compounds for human non-tumoral cells was studied in fibroblasts, HUVEC cells and resting PBLs (Peripheral Blood lymphocytes).
HUVEC cells were obtained by treating human cords with collagenase type I, […] in Hank's medium incubating 20 minutes at 37° C. Cells were collected afterwards and cultivated in medium M199 with supplements of 20% FBS, 1% P/S and 25 mg/500 ml of medium ECGF, Cells were grown on a 0.2% gelatin matrix.
(§7) Distinct amounts of exponentially growing cells were seeded in 96-well flat-bottomed microtiter plates in a final volume of 100 μl were seeded in 96-well flat-bottomed microtiter plates, and incubated at 37° C. in a humidified atmosphere of 5% CO2/95% air for 24 h to allow the cells attach to the plates. Then, cells were incubated with different concentrations of the assayed compound at 37° C. under the 5% CO2/95% air atmosphere for 72 h. Cell proliferation was quantified using the XTT cell proliferation kit (Roche Molecular Biochemicals, Mannheim, Germany) following the manufacturer's instructions. Briefly, a freshly prepared mixture solution (50 μl) of XTT labelling reagent and PMS (N-methyldibenzopyrazine methyl sulfate) electron coupling reagent was added to each well. The resulting mixtures were further incubated for 4 h in a humidified atmosphere (37° C., 5% CO2), and the absorbance of the formazan product generated was measured with a microtiter plate reader at a test wavelength of 490 nm and a reference wavelength of 655 nm. The IC50 (50% inhibitory concentration) was then calculated as the drug concentration causing a 50% inhibition of cell proliferation. Data are shown as mean values of four independent experiments each performed in triplicate.

[15] = Cytotoxicity for human non-tumoral cells, XTT; type: cell-based; conditions: Fibroblasts
Method: as §6, §7

[16] = system: resting human PBLs; test: Apoptosis of resting human PBLs; type: cell-based
Method: To isolate normal peripheral blood lymphocytes (PBLs), mononuclear cells were obtained from fresh human peripheral blood from healthy volunteers by centrifugation on Ficoll-Hypaque density gradients, washed with phosphate-buffered saline (PBS), and resuspended in RPMI-1640 medium containing 10% (v/v) heat-inactivated FBS, 2 mM L-glutamine, 100 U/ml penicillin, and 100 μg/ml streptomycin as described (Cabaner et al. Br. J. Pharmacol 127:813-825.1999). Monocytes were depleted by culture dish adherence after overnight incubation. Nonadherent cells (lymphocytes) were washed with PBS and collected. PBL preparations were typically 70-75% CD3^+, 24-29% CD 19^+, and less than 0.4% CD 14^+.

[17] = system: haematological cancer cell lines; test: Apoptosis induction in haematological cancer cell lines; type: cell-based

SMILES	Inhibition of TNFr [1]	Inhibition of IL6r [2]	Inhibition of IL4r [3]	reduction of blood serum levels of TNF-α in relation to vehicle group [4] [%]	IC50 [5] [µM]	IC50 [6] [µM]	IC50 [7] [µM]	IC50 [8] [µM]	IC50 [9] [µM]	IC50 [10] [µM]	IC50 [11] [µM]	melting point [°C]	tumour volume of human colorectal cancer [12]	reduction of blood serum levels of IL6 in relation to vehicle group [13] [%]	IC50 at 72 h [14] [µM]	IC50 at 72 h [15] [µM]	% Apoptosis PBLs ([16]; 10^−4 M) [%]	% Apoptosis PBLs ([16]; 10^−5 M) [%]	effect on PBLs ([16]; even at 10^−4 M)	concentration inducing apoptosis in haematological cancer cell lines [17]
C(CCCNCc1ccco1)=C(c1ccccc1)c1ccccc1.Cl [Compound 8, (5,5-diphenyl-pent-4-enyl)furan-2-ylmethylamine hydrochloride]	Inhibition of TNFr total	Inhibition of IL6r total	Inhibition of IL4r total	37.7	14	5 to 50	5 to 50	16	5 to 50	5 to 50	5 to 50	139 to 141.3								
O=c1[nH]cc(F)c(=O)[nH]1 [Compound 5-FU, 5-F uracil, reference compound]													not active in the tested experimental conditions							
Cl.FC(F)(F)Oc1cccc(CNCCCCC=C(c2ccccc2)c2ccccc2)c1 [Compound 15, (6,6-diphenyl-hex-5-enyl)-(3-trifluoromethoxybenzyl)amine hydrochloride]												96.6 to 98.5		64.58						
C(CCCNCc1nc2ccccc2[nH]1)=C(c1ccccc1)c1ccccc1.Cl [Compound 11, (1H-benzoimidazol-2-ylmethyl)-(5,5-diphenyl-pent-4-enyl)amine hydrochloride]	Inhibition of TNFr total	Inhibition of IL6r total	Inhibition of IL4r total	35.42								251 to 253.8								
C(CCCNCc1cccs1)=C(c1ccccc1)c1ccccc1.Cl [Compound 6, (5,5-diphenyl-pent-4-enyl)-thiophen-2-ylmethyl-amine hydrochloride]	Inhibition of TNFr total	Inhibition of IL6r total	Inhibition of IL4r total		16	8.1	5 to 50	13	17	29	13	161 to 161.6			27	24	7.2	4.1	hardly affect PBLs	~10^−6 M
